From ChEMBL document CHEMBL5096194, “Development of Alectinib-Based PROTACs as Novel Potent Degraders of Anaplastic Lymphoma Kinase (ALK)” (J Med Chem, 2021)
Activity calls are given as the source filed them. The calls are words filed in the database; no cut-off is given here.

Experiments:
[1] = tested on: NCI-H3122; experiment: Antiproliferative activity against ALK-positive human NCI-H3122 cells assessed as inhibition of cell proliferation measured after 72 hrs by MTT assay; type: functional, cell-based; settings: NCI-H3122, 72 h
[2] = tested on: KARPAS-299; experiment: Antiproliferative activity against ALK-positive human KARPAS-299 cells assessed as inhibition of cell proliferation measured after 72 hrs by MTT assay; type: functional, cell-based; settings: KARPAS-299, 72 h
[3] = molecular target: T1, Protein cereblon/ALK tyrosine kinase receptor/Echinoderm microtubule-associated protein-like 4 (Homo sapiens) (UniProt Q9UM73+Q9HC35+Q96SW2); experiment: Protac activity at CRBN/EML4-ALK in human NCI-H3122 cells assessed as induction of EML4-ALK fusion protein degradation at 1 uM incubated for 16 hrs by Western blot analysis relative to control; type: cell-based
T1 sequence (Q96SW2 whole entry partner, the tested form may be a part): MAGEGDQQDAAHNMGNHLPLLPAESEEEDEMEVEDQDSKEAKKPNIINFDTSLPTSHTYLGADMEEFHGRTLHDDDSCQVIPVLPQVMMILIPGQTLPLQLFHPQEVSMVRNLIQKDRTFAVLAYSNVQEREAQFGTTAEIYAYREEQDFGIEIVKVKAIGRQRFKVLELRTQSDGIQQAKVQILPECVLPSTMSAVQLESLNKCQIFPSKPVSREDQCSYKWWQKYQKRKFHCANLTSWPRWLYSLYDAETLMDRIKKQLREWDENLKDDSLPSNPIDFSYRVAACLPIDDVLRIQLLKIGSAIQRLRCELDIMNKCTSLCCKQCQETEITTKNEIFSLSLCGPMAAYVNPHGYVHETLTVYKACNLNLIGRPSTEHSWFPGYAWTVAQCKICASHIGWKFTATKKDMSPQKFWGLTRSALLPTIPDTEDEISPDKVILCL
T1 sequence (Q9HC35 whole entry partner, the tested form may be a part): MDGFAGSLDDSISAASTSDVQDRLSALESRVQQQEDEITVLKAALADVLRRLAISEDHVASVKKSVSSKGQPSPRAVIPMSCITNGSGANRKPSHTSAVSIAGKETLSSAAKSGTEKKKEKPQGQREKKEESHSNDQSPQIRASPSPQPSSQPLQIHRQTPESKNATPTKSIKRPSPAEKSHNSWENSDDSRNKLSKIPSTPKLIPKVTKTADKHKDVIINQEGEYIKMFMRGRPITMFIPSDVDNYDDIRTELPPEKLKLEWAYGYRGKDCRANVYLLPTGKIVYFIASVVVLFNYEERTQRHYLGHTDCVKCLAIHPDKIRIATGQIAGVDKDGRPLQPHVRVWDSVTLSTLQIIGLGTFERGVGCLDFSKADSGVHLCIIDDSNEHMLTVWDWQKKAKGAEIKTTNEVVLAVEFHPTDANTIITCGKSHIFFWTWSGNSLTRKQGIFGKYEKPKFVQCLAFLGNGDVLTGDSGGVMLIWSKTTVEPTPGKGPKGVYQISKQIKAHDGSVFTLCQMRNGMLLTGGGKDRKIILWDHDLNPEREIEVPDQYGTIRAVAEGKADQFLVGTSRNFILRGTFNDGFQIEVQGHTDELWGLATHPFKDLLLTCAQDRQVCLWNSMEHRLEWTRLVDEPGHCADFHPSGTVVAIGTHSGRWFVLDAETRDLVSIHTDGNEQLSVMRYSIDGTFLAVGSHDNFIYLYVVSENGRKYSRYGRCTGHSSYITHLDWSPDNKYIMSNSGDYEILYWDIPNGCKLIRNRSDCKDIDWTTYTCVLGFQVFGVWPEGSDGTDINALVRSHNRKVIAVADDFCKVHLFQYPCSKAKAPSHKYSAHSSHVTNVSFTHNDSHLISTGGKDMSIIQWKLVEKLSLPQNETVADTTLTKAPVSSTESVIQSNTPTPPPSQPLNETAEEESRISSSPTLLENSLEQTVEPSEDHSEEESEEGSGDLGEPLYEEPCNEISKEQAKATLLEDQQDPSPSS
T1 sequence (Q9UM73 19-1620 limits assumed): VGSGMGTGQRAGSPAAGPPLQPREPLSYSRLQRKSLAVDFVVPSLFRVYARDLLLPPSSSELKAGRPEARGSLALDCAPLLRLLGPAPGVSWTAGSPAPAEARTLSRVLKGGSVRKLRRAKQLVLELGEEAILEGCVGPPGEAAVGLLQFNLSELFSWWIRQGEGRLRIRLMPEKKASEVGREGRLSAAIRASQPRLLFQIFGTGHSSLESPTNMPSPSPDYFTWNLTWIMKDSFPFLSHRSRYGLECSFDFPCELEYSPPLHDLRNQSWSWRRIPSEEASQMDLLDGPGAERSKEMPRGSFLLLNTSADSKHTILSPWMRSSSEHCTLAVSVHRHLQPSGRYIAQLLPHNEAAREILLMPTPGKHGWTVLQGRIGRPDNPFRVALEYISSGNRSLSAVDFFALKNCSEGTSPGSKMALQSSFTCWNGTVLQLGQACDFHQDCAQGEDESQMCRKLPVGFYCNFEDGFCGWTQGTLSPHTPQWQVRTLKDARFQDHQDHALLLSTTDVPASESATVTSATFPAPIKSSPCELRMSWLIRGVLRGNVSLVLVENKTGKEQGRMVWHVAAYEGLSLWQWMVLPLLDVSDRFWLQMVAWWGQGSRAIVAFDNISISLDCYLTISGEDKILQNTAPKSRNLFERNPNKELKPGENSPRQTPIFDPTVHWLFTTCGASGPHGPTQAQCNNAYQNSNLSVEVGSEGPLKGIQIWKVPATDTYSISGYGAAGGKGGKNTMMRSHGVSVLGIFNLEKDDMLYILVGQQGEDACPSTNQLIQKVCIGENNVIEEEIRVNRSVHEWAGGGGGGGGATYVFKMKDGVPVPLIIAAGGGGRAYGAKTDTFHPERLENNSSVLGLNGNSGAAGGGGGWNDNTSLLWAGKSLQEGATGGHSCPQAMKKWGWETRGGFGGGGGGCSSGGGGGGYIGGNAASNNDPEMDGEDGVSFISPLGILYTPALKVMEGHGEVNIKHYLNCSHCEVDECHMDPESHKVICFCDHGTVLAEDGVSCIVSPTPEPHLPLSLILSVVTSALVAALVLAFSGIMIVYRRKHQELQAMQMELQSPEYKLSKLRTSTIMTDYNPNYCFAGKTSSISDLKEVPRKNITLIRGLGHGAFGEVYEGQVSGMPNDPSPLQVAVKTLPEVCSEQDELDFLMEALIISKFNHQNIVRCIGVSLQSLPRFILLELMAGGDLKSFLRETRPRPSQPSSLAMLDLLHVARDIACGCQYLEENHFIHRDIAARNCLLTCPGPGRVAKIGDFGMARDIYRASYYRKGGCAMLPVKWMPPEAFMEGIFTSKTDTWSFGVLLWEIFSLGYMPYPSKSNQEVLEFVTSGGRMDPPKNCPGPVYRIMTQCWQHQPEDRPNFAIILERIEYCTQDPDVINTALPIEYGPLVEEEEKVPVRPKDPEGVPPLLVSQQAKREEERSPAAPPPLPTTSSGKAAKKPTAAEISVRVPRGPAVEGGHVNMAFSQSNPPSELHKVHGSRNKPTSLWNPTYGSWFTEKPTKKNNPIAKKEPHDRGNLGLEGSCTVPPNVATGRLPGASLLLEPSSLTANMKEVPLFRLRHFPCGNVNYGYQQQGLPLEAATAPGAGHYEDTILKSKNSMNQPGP

[4] = molecular target: T1, Protein cereblon/ALK tyrosine kinase receptor/Echinoderm microtubule-associated protein-like 4 (Homo sapiens); experiment: Protac activity at CRBN/EML4-ALK in human NCI-H3122 cells assessed as induction of EML4-ALK fusion protein degradation at 0.1 uM incubated for 16 hrs by Western blot analysis relative to control; type: cell-based
[5] = molecular target: T2, ALK tyrosine kinase receptor (Homo sapiens, UniProt Q9UM73)
Target sequence in this assay (Q9UM73 whole entry, the tested form may be a part): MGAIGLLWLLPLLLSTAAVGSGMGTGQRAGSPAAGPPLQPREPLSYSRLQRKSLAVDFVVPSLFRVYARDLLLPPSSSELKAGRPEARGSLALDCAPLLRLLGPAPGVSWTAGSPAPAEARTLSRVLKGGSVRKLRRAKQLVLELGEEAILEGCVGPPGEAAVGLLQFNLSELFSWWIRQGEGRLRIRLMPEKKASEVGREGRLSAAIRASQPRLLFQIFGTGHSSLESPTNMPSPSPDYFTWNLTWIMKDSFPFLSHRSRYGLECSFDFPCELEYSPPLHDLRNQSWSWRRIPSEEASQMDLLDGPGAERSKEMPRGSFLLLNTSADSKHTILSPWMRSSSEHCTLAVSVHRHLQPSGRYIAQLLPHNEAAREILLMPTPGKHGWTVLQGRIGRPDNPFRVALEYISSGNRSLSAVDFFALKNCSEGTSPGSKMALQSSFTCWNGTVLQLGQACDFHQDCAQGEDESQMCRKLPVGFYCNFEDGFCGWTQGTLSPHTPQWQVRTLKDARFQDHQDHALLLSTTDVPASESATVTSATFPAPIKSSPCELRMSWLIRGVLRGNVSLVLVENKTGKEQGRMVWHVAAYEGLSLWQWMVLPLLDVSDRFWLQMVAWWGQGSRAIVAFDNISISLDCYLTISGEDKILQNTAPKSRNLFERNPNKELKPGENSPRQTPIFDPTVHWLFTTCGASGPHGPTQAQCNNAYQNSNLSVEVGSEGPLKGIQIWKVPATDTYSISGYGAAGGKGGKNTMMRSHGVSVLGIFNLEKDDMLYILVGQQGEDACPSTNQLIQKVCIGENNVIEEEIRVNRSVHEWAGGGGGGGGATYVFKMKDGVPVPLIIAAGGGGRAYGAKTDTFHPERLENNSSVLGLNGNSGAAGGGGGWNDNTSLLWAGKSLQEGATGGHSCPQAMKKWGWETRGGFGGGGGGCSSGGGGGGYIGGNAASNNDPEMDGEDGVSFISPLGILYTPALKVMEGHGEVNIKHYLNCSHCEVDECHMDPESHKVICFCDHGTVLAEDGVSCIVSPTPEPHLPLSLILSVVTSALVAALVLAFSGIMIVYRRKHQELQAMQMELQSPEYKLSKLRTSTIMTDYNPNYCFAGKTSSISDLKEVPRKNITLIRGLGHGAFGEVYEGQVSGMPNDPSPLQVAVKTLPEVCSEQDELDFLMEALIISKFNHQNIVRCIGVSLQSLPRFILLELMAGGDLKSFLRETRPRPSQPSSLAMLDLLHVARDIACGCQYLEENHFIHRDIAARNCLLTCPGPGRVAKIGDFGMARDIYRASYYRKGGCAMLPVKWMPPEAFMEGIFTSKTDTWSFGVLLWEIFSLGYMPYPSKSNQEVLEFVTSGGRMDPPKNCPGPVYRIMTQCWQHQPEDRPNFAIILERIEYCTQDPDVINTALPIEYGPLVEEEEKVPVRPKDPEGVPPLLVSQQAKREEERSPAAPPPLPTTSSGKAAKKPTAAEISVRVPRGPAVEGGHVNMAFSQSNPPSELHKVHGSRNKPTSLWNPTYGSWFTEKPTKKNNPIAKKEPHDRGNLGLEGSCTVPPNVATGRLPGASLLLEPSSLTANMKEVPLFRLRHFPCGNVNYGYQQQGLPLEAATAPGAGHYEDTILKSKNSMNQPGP

[6] = molecular target: T3, Protein cereblon/ALK tyrosine kinase receptor/Nucleophosmin (Homo sapiens) (UniProt Q9UM73+P06748+Q96SW2); experiment: Protac activity at CRBN/NPM-ALK in human KARPAS-299 cells assessed as induction of NPM-ALK fusion protein degradation at 1 uM incubated for 24 hrs by Western blot analysis relative to control; type: cell-based
T3 sequence (P06748 whole entry partner, the tested form may be a part): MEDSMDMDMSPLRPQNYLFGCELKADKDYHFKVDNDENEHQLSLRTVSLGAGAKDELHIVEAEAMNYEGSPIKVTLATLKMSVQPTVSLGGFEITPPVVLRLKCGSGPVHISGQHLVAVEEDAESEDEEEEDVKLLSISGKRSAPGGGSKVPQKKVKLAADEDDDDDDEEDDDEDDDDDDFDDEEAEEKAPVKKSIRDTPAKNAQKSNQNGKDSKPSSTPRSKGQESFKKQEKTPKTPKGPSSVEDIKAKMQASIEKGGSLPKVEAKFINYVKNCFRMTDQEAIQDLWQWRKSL
T3 sequence (Q96SW2 whole entry partner, the tested form may be a part): as the sequence (Q96SW2 whole entry partner, the tested form may be a part) above
T3 sequence (Q9UM73 19-1620 limits assumed): as the sequence (Q9UM73 19-1620 limits assumed) above

[7] = molecular target: T3, Protein cereblon/ALK tyrosine kinase receptor/Nucleophosmin (Homo sapiens); experiment: Protac activity at CRBN/NPM-ALK in human KARPAS-299 cells assessed as induction of NPM-ALK fusion protein degradation at 0.1 uM incubated for 24 hrs by Western blot analysis relative to control; type: cell-based
[8] = molecular target: T2, ALK tyrosine kinase receptor; experiment: Inhibition of ALK phosphorylation in human KARPAS-299 cells at 0.01 to 1 uM measured after 24 hrs by Western blot analysis; type: cell-based; settings: dose 0.01-1 µM
Target sequence in this assay (Q9UM73 19-1620 limits assumed): as above

[9] = molecular target: Signal transducer and activator of transcription 3 (Homo sapiens) (UniProt P40763); experiment: Inhibition of STAT3 phosphorylation in human KARPAS-299 cells as 0.01 to 1 uM measured after 24 hrs by Western blot analysis; type: cell-based; settings: dose 0.01-1 µM
[10] = tested on: KARPAS-299; experiment: Antiproliferative activity against human KARPAS-299 cells assessed as inhibition of cell growth measured after 72 hrs by MTT assay; type: functional, cell-based; settings: KARPAS-299, 72 h
[11] = tested on: BaF3; experiment: Antiproliferative activity against mouse BaF3 cells assessed as cell viability at 1 uM incubated for 72 hrs by Celltitre-Glo assay relative to control; type: functional; settings: read-out: Activity
[12] = tested on: BaF3; experiment: Antiproliferative activity against mouse BaF3 cells expressing wild type EML-ALK assessed as cell viability at 1 uM incubated for 72 hrs by Celltitre-Glo assay relative to control; type: functional; settings: read-out: Activity
[13] = tested on: BaF3; experiment: Antiproliferative activity against crizotinib-resistant mouse BaF3 cells expressing EML-ALK L1152R mutant assessed as cell viability at 1 uM incubated for 72 hrs by Celltitre-Glo assay relative to control; type: functional; settings: read-out: Activity
[14] = tested on: BaF3; experiment: Antiproliferative activity against crizotinib-resistant mouse BaF3 cells expressing EML-ALK G1202R mutant assessed as cell viability at 1 uM incubated for 72 hrs by Celltitre-Glo assay relative to control; type: functional; settings: read-out: Activity
[15] = tested on: BaF3; experiment: Antiproliferative activity against crizotinib-resistant mouse BaF3 cells expressing EML-ALK L1196M mutant assessed as cell viability at 1 uM incubated for 72 hrs by Celltitre-Glo assay relative to control; type: functional; settings: read-out: Activity
[16] = tested on: KARPAS-299; experiment: Antitumor activity against human KARPAS-299 cells xenografted in NCG mouse assessed as reduction in tumor volume at 20 mg/kg, po administered once every day for 3 weeks and measured every 3 days; type: functional, organism-based
[17] = tested on: KARPAS-299; experiment: Antitumor activity against human KARPAS-299 cells xenografted in NCG mouse assessed as reduction in tumor weight at 20 mg/kg, po administered once every day for 3 weeks and measured every 3 days; type: functional, organism-based
[18] = tested on: KARPAS-299; experiment: Antitumor activity against human KARPAS-299 cells xenografted in NCG mouse assessed as tumor growth inhibition at 20 mg/kg, po administered once every day for 3 weeks and measured every 3 days relative to control; type: functional; settings: KARPAS-299, 504 h, read-out: TGI
[19] = Toxicity in NCG mouse xenografted with human KARPAS-299 cells assessed as body weight loss at 20 mg/kg, po administered once every day for 3 weeks; type: organism-based; settings: in vivo, 504 h
[20] = Toxicity in NCG mouse xenografted with human KARPAS-299 cells assessed as heart damage at 20 mg/kg, po administered once every day for 3 weeks by H & E staining based analysis; type: organism-based; settings: in vivo, 504 h
[21] = Toxicity in NCG mouse xenografted with human KARPAS-299 cells assessed as liver damage at 20 mg/kg, po administered once every day for 3 weeks by H and E staining based analysis; type: organism-based; settings: in vivo, 504 h
[22] = Toxicity in NCG mouse xenografted with human KARPAS-299 cells assessed as spleen damage at 20 mg/kg, po administered once every day for 3 weeks by H and E staining based analysis; type: organism-based; settings: in vivo, 504 h
[23] = Toxicity in NCG mouse xenografted with human KARPAS-299 cells assessed as lung damage at 20 mg/kg, po administered once every day for 3 weeks by H and E staining based analysis; type: organism-based; settings: in vivo, 504 h
[24] = Toxicity in NCG mouse xenografted with human KARPAS-299 cells assessed as kidney damage at 20 mg/kg, po administered once every day for 3 weeks by H and E staining based analysis; type: organism-based; settings: in vivo, 504 h
[25] = molecular target: Leukocyte tyrosine kinase receptor (Homo sapiens) (UniProt P29376); experiment: Inhibition of LTK (unknown origin) at 10 nM relative to control

| Structure (SMILES) | IC50 [1] [nM] | IC50 [2] [nM] | Activity [3] [%] | Activity [4] [%] | Activity [6] [%] | Activity [7] [%] | inhibition [8] | inhibition [9] | viability at 1 µM [12] [%] | viability at 1 µM [13] [%] | viability at 1 µM [14] [%] | viability at 1 µM [15] [%] | also measured |
| --- | --- | --- | --- | --- | --- | --- | --- | --- | --- | --- | --- | --- | --- |
| CCc1cc2c(cc1N1CCC(N3CCN(CC(=O)NCCNc4cccc5c4C(=O)N(C4CCC(=O)NC4=O)C5=O)CC3)CC1)C(C)(C)c1[nH]c3cc(C#N)ccc3c1C2=O (stereo not drawn) | 121 | 111 | 91 | 47.8 | – | – | – | – | – | – | – | – | – |
| CCc1cc2c(cc1N1CCN(C(=O)CNc3cccc4c3C(=O)N(C3CCC(=O)N(C)C3=O)C4=O)CC1)C(C)(C)c1[nH]c3cc(C#N)ccc3c1C2=O (stereo not drawn) | 272 | 275 | – | – | – | – | – | – | – | – | – | – | IC50 [5]: 30600 nM |
| CCc1cc2c(cc1N1CCN(CC(=O)NCCCCCCNc3cccc4c3C(=O)N(C3CCC(=O)NC3=O)C4=O)CC1)C(C)(C)c1[nH]c3cc(C#N)ccc3c1C2=O (stereo not drawn) | 116 | 114 | 75.8 | 51.3 | 69.8 | 66.5 | Active | Active | – | – | – | – | – |
| CCc1cc2c(cc1N1CCN(C(=O)CCCNc3cccc4c3C(=O)N(C3CCC(=O)NC3=O)C4=O)CC1)C(C)(C)c1[nH]c3cc(C#N)ccc3c1C2=O (stereo not drawn) | 92 | 66 | – | – | 85.9 | 77.4 | Active | Active | – | – | – | – | – |
| CCc1cc2c(cc1N1CCN(C(=O)CCCCCNc3cccc4c3C(=O)N(C3CCC(=O)NC3=O)C4=O)CC1)C(C)(C)c1[nH]c3cc(C#N)ccc3c1C2=O (stereo not drawn) | 269 | 245 | – | – | 71.6 | 55.1 | Active | Active | – | – | – | – | – |
| CCc1cc2c(cc1N1CCC(N3CCN(CC(=O)NCCCCCCNc4cccc5c4C(=O)N(C4CCC(=O)NC4=O)C5=O)CC3)CC1)C(C)(C)c1[nH]c3cc(C#N)ccc3c1C2=O (stereo not drawn) | 118 | 119 | 77.3 | 24.5 | – | – | – | – | – | – | – | – | – |
| Nc1cccc2c1C(=O)N(C1CCC(=O)NC1=O)C2=O (stereo not drawn) [POMALIDOMIDE] | – | – | – | – | – | – | – | – | – | – | – | – | IC50 [10]: > 10000 nM |
| CCc1cc2c(cc1N1CCNCC1)C(C)(C)c1[nH]c3cc(C#N)ccc3c1C2=O | 38 | 46 | – | – | – | – | – | – | 0.2 | 0 | 0.5 | 0.1 | IC50 [5]: 320 nM; viability at 1 µM [11]: 74% |
| CCc1cc2c(cc1N1CCN(CC(=O)NCCCCNc3cccc4c3C(=O)N(C3CCC(=O)NC3=O)C4=O)CC1)C(C)(C)c1[nH]c3cc(C#N)ccc3c1C2=O (stereo not drawn) | 77 | 97 | 75.7 | 38.3 | 76 | 56.5 | Active | Active | 0.1 | 0 | 76.1 | 4.8 | – |
| CCc1cc2c(cc1N1CCC(N3CCNCC3)CC1)C(C)(C)c1[nH]c3cc(C#N)ccc3c1C2=O | 40 | 50 | – | – | – | – | – | – | 0.2 | 0.1 | 0.3 | 0.1 | IC50 [5]: 290 nM |
| CCc1cc2c(cc1N1CCN(c3cccc4c3C(=O)N(C3CCC(=O)NC3=O)C4=O)CC1)C(C)(C)c1[nH]c3cc(C#N)ccc3c1C2=O (stereo not drawn) | 186 | 101 | 50.2 | 24.3 | 29.9 | – | – | – | – | – | – | – | – |
| CCc1cc2c(cc1N1CCC(N3CCN(c4cccc5c4C(=O)N(C4CCC(=O)NC4=O)C5=O)CC3)CC1)C(C)(C)c1[nH]c3cc(C#N)ccc3c1C2=O (stereo not drawn) | 612 | 640 | 50.6 | – | – | – | – | – | – | – | – | – | – |
| CCc1cc2c(cc1N1CCC(N3CCOCC3)CC1)C(C)(C)c1[nH]c3cc(C#N)ccc3c1C2=O [ALECTINIB] | 45 | 47 | – | – | – | – | – | – | 0.1 | 0 | 73.3 | 1.9 | Activity [16]: Active; Activity [17]: Active; inhibition in vivo at 20 mg/kg [18]: 63.8%; Activity [19]: Non-Toxic; Activity [20]: Non-Toxic; Activity [21]: Non-Toxic; Activity [22]: Non-Toxic; Activity [23]: Non-Toxic; Activity [24]: Non-Toxic; viability at 1 µM [11]: 100%; inhibition [25]: > 50% |
| CCc1cc2c(cc1N1CCC(N3CCN(C(=O)CNc4cccc5c4C(=O)N(C4CCC(=O)NC4=O)C5=O)CC3)CC1)C(C)(C)c1[nH]c3cc(C#N)ccc3c1C2=O (stereo not drawn) | 107 | 107 | 96.9 | 77.3 | 94.3 | 72.8 | Active | Active | – | – | – | – | – |
| CCc1cc2c(cc1N1CCN(CC(=O)NCCNc3cccc4c3C(=O)N(C3CCC(=O)NC3=O)C4=O)CC1)C(C)(C)c1[nH]c3cc(C#N)ccc3c1C2=O (stereo not drawn) | 121 | 106 | 81.8 | 74.4 | 57.8 | 68.3 | Active | Active | – | – | – | – | – |
| CCc1cc2c(cc1N1CCC(N3CCN(CC(=O)NCCCCNc4cccc5c4C(=O)N(C4CCC(=O)NC4=O)C5=O)CC3)CC1)C(C)(C)c1[nH]c3cc(C#N)ccc3c1C2=O (stereo not drawn) | 96 | 119 | 87 | 49.9 | – | – | – | – | 0.1 | 0.1 | 70.9 | 3.6 | – |
